Reference: paper PMC3337405 (Cancer Chemotherapy and Pharmacology, 2012)
Where “and” joins values, the source holds several entries; their conditions need not be identical. Equal values may be shown once.

Legend:
[1] = system: QT interval; conditions: ref 16 (AC220), 17 (MLN518), 18 (sorafenib); cited from earlier work
[2] = human, in vivo
Experimental: (§2) Blood samples for PK analysis were collected predose and 0.5, 1, 2, 3, 4, 8, 12, and 24 h post dose on days 1 and 3 at the same time as ECG assessments. […] Noncompartmental analysis (WinNonlin™ version 5.2, Pharsight, Sunnyvale, California) was performed to determine the following PK parameters: C max, T max, minimum (trough) plasma concentration over a dosing interval (C min), and AUC calculated using a trapezoidal method. For moxifloxacin, the AUC from time 0 to the last measurable concentration sampling time was calculated (AUC0–tlast).

[3] = system: healthy volunteers; assay: Concentration–QT linear random-effects model; format: in vivo, human; conditions: moxifloxacin
Text: Baseline QTcF was included in the model as a covariate. […] This exploratory analysis was applied to both the change from the time-matched baseline and the change from time-averaged baseline.

[4] = moxifloxacin; cited from earlier work
[5] = system: healthy volunteers; assay: Adverse events and discontinuations; format: in vivo, human
Experimental: (§1) Electrocardiogram analysis was performed at a blinded central reading facility (ERT, East Bridgewater, NJ) in digital format, with paper tracings obtained and archived immediately on site. Vital signs were assessed daily. Clinical laboratory parameters were assessed at baseline and at the end of study. Self-reported adverse events were continuously recorded from the first study treatment (placebo, day −1) through the end of study on day 4.

[6] = Plasma pharmacokinetics, noncompartmental analysis; conditions: moxifloxacin 400 mg overencapsulated, day 3
Experimental: as §2

[7] = system: QTcF interval; conditions: cited from earlier work
[8] = system: healthy volunteers; assay: Outlier analysis of QTc and other ECG parameters, ECG morphology; format: in vivo, human; conditions: for QTcB >30 ms, time-matched change from baseline, participants: text: 30- to 60-ms category
Experimental: Outlier analysis for QTc was also exploratory because this study was not powered to detect individuals with genetic sensitivity to potential QT-prolonging drugs. The nonspecific outlier criterion was a change from baseline in QTc interval of 30–60 ms.
as §1, with “Standard triplicate 12-lead ECGs were obtained at 9 time points over 24 h at […] and at 2 time points on day 1. Electrocardiogram” for “Electrocardiogram”

[9] = system: healthy volunteers; assay: Thorough QT/QTc study: QTcF change from baseline on day 3 (12-lead ECG); format: in vivo, human
Text: This study was a phase I, randomized, double-blind, placebo- and active-controlled, 3-way, parallel-group study conducted at a single center in the United States and approved by the Arkansas Research Medical Testing, LLC, Institutional Review Board. The design followed the recommendations of the International Conference on Harmonisation of Technical Requirements for Registration of Pharmaceuticals for Human Use (ICH) E14 guideline on “The Clinical Evaluation of QT/QTc Interval Prolongation and Proarrhythmic Potential for Non-Antiarrhythmic Drugs” [19]. As such, the trial included a concurrent positive control group and addressed intrinsic variability by conducting multiple ECGs at baseline and during the study. The study was conducted according to the ethical principles of the Declaration of Helsinki, and written informed consent was obtained from each subject during screening.
The treatment regimen was selected to achieve maximal plasma exposure for QTc evaluation while minimizing the risks of excessive or prolonged exposure in healthy volunteers.
The baseline comparison was from day −1 to day 3 at matched time points.
The following hypothesis was tested to confirm that the study had sufficient assay sensitivity: [drawing 3] [drawing 4] where μmoxi(t) was the mean QTcF change from baseline observed following moxifloxacin 400 mg at time point t. If the null hypothesis was rejected, the study had sufficient sensitivity. The Simes method was used for the protection of an experiment-wise 5% type I error [22, 23]. With the Simes method, the original P values corresponding to 0.5, 1, 2, 3, and 4 h post baseline are ordered increasingly, that is, P 1 ≤ P 2 ≤ P 3 ≤ P 4 ≤ P 5. After the Simes correction, the P values were 5P 1, 5P 2/2, 5P 3/3, 5P 4/4, and P 5 respectively. If any of the 5 adjusted P values were <.05, assay sensitivity was claimed. Only the participants who completed all scheduled doses of study medication from day 1 to day 3 and had at least 1 ECG on day −1 (baseline) and at least 1 ECG on day 3 (time-matched day 3 data for the time-matched analysis) were included in the assay sensitivity test.
Electrocardiogram measurements at each time point were calculated as an average of 3 separate ECG extractions or replicates. (Each extraction was the mean of 3 beats.) If fewer than 3 measurements were available, the available samples were averaged (i.e., a minimum of 1 measure was required). For each subject, the time-matched baseline value was subtracted from the QT/QTc intervals to determine the change from baseline in QT/QTc intervals for that subject. The 2 null hypotheses described above were tested in a linear mixed-effect model with a compound symmetry covariance structure. The model included the baseline measure as covariate and treatment, time, and the treatment-by-time interaction as fixed effects, where time was a categorical variable and subject was a random effect.
The time-matched analysis was conducted on the QTcF change from the time-matched baseline as recommended by the ICH E14 guideline. Although modeling change from the time-matched baseline was the primary analysis, the change from the time-averaged baseline was also analyzed using the same model. For the averaged baseline, each triplicate ECG collection was averaged first, and then the averaged baseline was calculated based on all the averaged triplicate ECG and unscheduled ECGs.
as §1, with “Standard triplicate 12-lead ECGs were obtained at 9 time points over 24 h at […] and at 2 time points on day 1. Electrocardiogram” for “Electrocardiogram”

[10] = moxifloxacin 400 mg, 1 h post dose on day 3

CNC(=O)c1cc(Oc2ccc(NC(=O)Nc3ccc(Cl)c(C(F)(F)F)c3)cc2)ccn1 [sorafenib]
effect on QT interval in clinical trials [1]: induce prolongation of the QT interval

CN(C(=O)c1ccccc1)[C@@H]1C[C@H]2O[C@@](C)([C@@H]1O)n1c3ccccc3c3c4c(c5c6ccccc6n2c5c31)C(=O)NC4 [CGP62221]
time of peak concentrations post dose [2]: 3 to 4 h
AUC0-12h, mean (SD) ([2]; po, 75 mg): 7848.2 (1579.9) ng * hour/mL
AUC0-24h, mean (SD) ([2]; po, 75 mg): 36 486.5 (9769.7) ng × hour/mL

COc1c(N2C[C@@H]3CCCN[C@@H]3C2)c(F)cc2c(=O)c(C(=O)O)cn(C3CC3)c12 [Moxifloxacin, reference compound]
slope of QT change from baseline with increasing plasma concentration ([3]; QT): 4.0
slope of QTcB change from baseline with increasing plasma concentration ([3]; QTcB): 2.6
slope of QTcF change from baseline with increasing plasma concentration ([3]; QTcF): 3.2 ms per μg/mL
Cmax previously reported [4]: 2830 ng/mL
Discontinued, main cause Adverse event(s) ([5]; randomized set): 0 (0.0) no. (%)
Discontinued, main cause Death ([5]; randomized set): 0 (0.0) no. (%)
Abdominal pain ([5]; safety set, all grade 1/2): 0 (0.0) no. (%)
Arthralgia ([5]; safety set, all grade 1/2): 0 (0.0) no. (%)
Diarrhea ([5]; safety set, all grade 1/2): 1 (2.3) no. (%)
Dizziness ([5]; safety set, all grade 1/2): 1 (2.3) no. (%)
Dry mouth ([5]; safety set, all grade 1/2): 0 (0.0) no. (%)
Dysmenorrhea ([5]; safety set, all grade 1/2): 0 (0.0) no. (%)
Dyspepsia ([5]; safety set, all grade 1/2): 1 (2.3) no. (%)
Eructation ([5]; safety set, all grade 1/2): 0 (0.0) no. (%)
Flatulence ([5]; safety set, all grade 1/2): 1 (2.3) no. (%)
Flushing ([5]; safety set, all grade 1/2): 0 (0.0) no. (%)
Headache ([5]; safety set, all grade 1/2): 4 (9.1) no. (%)
Hiccups ([5]; safety set, all grade 1/2): 0 (0.0) no. (%)
Hot flushes ([5]; safety set, all grade 1/2): 0 (0.0) no. (%)
Nausea ([5]; safety set, all grade 1/2): 5 (11.4) no. (%)
Pollakiuria ([5]; safety set, all grade 1/2): 1 (2.3) no. (%)
Rash ([5]; safety set, all grade 1/2): 1 (2.3) no. (%)
Salivary hypersecretion ([5]; safety set, all grade 1/2): 0 (0.0) no. (%)
Sexually transmitted disease ([5]; safety set, all grade 1/2): 0 (0.0) no. (%)
Vomiting ([5]; safety set, all grade 1/2): 1 (2.3) no. (%)
Participants with adverse events ([5]; safety set, all grade 1/2, 4-day evaluation period): 9 (20.5) no. (%)
Tachycardia ([5]; safety set, grade 1, midostaurin-arm cases occurred during placebo run-in (day −1)): 0 (0.0) no. (%)
Cmax ([6]; human, plasma, oral, 400 mg, geometric mean): 2500 ng/mL
Cmax ([6]; human, plasma, oral, 400 mg, mean): 2540 ng/mL
Cmax ([6]; human, plasma, oral, 400 mg, median): 2460 ng/mL
Tmax ([6]; human, plasma, oral, 400 mg, Tmax, median): 2.1 h
Cmax, mean [6]: 2544 ng/mL
mean slope estimates, concentration–QTc ([7]; 5 other thorough QTc studies): 2.5 ms per μg/mL and 2.4 ms per μg/mL and 3.3 ms per μg/mL and 3.5 ms per μg/mL and 4.3 ms per μg/mL
effect on QTc intervals [7]: prolong QTc intervals in a dose-dependent manner
expected effect on the QTcF interval ([7]; previous studies): 8 to 13 ms
new U-wave abnormalities ([8]; 12-lead ECG): 1 case
new post baseline T-wave abnormalities ([8]; 12-lead ECG): 4 participants
PR increase ≥25% and resultant PR >200 ms, participants ([8]; safety set): 0 no. (%)
QRS increase ≥25% and resultant QRS >100 ms, participants ([8]; safety set): 0 no. (%)
QTcB >60 ms, time-matched change from baseline, participants ([8]; safety set): 0 no. (%)
QTcF >30 ms, time-matched change from baseline, participants ([8]; safety set): 0 no. (%)
QTcF >60 ms, time-matched change from baseline, participants ([8]; safety set): 0 no. (%)
QTcI >30 ms, time-matched change from baseline, participants ([8]; safety set): 0 no. (%)
QTcI >60 ms, time-matched change from baseline, participants ([8]; safety set): 0 no. (%)
RR decrease ≥25% and resultant RR <600 ms, participants ([8]; safety set): 0 no. (%)
RR increase ≥25% and resultant RR >1,200 ms, participants ([8]; safety set): 0 no. (%)
QTcB New >450 ms, participants ([8]; safety set, post baseline, text: between 450 and 480 ms): 1 (2.3%) no. (%)
QTcB >30 ms, time-matched change from baseline, participants ([8]; safety set): 7 (15.9) no. (%)
QTcB >30 ms, time-matched change from baseline, participants ([8]; safety set, listed as moxifloxacin): 7 (15.9%) no. (%)
upper limit of the 95% CI of QTcF prolongation from time-matched baseline ([9]; moxifloxacin 400 mg, 1 h post dose): 14.9 ms
lower bound of 95% CI, QTcF change from time-averaged baseline compared with placebo [9, 10]: 7.6 ms
lower bound of the 1-sided 95% CI of QTcF prolongation from time-matched baseline [9, 10]: 6.4 ms and > 5 ms
maximum mean QTcF change from time-averaged baseline compared with placebo [9, 10]: 10.2 ms
maximum mean QTcF prolongation from time-matched baseline compared with placebo ([9]; moxifloxacin single 400-mg dose, 1 h post dose on day 3): 10.7 ms
